Experimental data from patent US5164381A, “Pharmacologically active 1,5-diaryl-3-substituted pyrazoles and method for synthesizing the same” (Ortho Pharmaceutical Corporation, priority 1991, dated 1992).

Tested on: cyclooxygenase (CO)
Experiment: not given
Conditions: cited from earlier work

In the case of COc1ccc2c(c1)c(CC(=O)O)c(C)n2C(=O)c1ccc(Cl)cc1 [indomethacin], the “inhibition of cyclooxygenase enzyme by NSAIDs (in words)” value is listed as “only inhibit the cyclooxygenase enzyme”.

Tested on: Lewis strain laboratory rats
Experiment: In vivo alleviation of inflammation: polyarthritis (adjuvant, Mycobacterium butyricum) in rats, inhibition of paw volume increase
Conditions: Rattus norvegicus, po, rat; read-out: ED50 (effective dose to obtain a 50% inhibition of inflammation)
Protocol: Polyarthritis was induced in Lewis strain laboratory rats (weight=about 200 grams) by injection of a suspension of Mycobacterium butyricum in mineral oil into the subplantar tissue of the mammal's hind paws. On day 10 after the injection, the rats were assigned to groups, and paw volumes and body weights were recorded. Paw volumes of the contralateral, uninjected hind paw were determined by mercury plethylsmography. Per oral (p.o.) dosing began and continued for five consecutive days thereafter. On day 14 after the initial injection, approximately four hours after the final dose was administered, paw volumes and body weights were recorded and quantitated.
Anti-inflammatory activity of the substituted pyrazole compounds is expressed as the percent inhibition of paw volume increase.

COc1ccc(-n2nc(CCC(=O)N(C)O)cc2-c2ccc(C(F)(F)F)cc2)cc1 [Compound 79] and COc1ccc(-n2nc(CCCO)cc2-c2ccc(C)cc2)cc1 [Compound 55, 3-(3-hydroxypropyl)-1-(4-methoxyphenyl)-5-(4-tolyl)pyrazole] are within 1.5-fold of each other in ED50: 3.2 mg/kg for the first, 3.9 mg/kg for the second.

Same assay, conditions: p.o., rat; monohydrate

For COc1ccc(-n2nc(CCC(=O)O)cc2-c2ccc(Cl)cc2)cc1 [Compound 13, Sodium 3-[5-(4-chlorophenyl)-1-(4-methoxyphenyl)-3-pyrazoyl] propanoate monohydrate], the “ED50 (effective dose to obtain a 50% inhibition of inflammation)” value was 1.8 mpk.

Same assay, conditions: po, 336 h; 10 mpk p.o., rat; read-out: % INH. p.o. (percentage inhibition of pad swelling)

First: CCCCCCCC(=O)N(O)CCCc1cc(-c2ccc(Cl)cc2)n(-c2ccc(OC)cc2)n1 [Compound 154]
Second: CCCCCCCCN(O)C(=O)CCc1cc(-c2ccc(Cl)cc2)n(-c2ccc(OC)cc2)n1 [Compound 146]
The inhibition in vivo at 10 mg/kg of the first is lower: 11% for the first, 29% for the second.

Going from CCC(CCc1cc(-c2ccc(Cl)cc2)n(-c2ccc(OC)cc2)n1)=NNc1nccs1 [Compound 175] to COc1ccc(-n2nc(CCC(=O)N(O)C(C)C(=O)O)cc2-c2ccc(Cl)cc2)cc1 (centres unmarked) [Compound 145], the inhibition in vivo at 10 mg/kg rises from 16% to 61%.

Compared with COc1ccc(-n2nc(CCC(=O)N(C)OC(=O)CCC(=O)N3CCOCC3)cc2-c2ccc(Cl)cc2)cc1 [Compound 136], COc1ccc(-n2nc(CCC(O)C(C)(C)C)cc2-c2ccc(Cl)cc2)cc1 (centres unmarked) [Compound 179] is lower in inhibition in vivo at 10 mg/kg: 38% for the first, 36% for the second.

Compared with COc1ccc(-n2nc(CCC(=O)O)cc2-c2ccccc2C)cc1 [Compound 109], COc1ccc(-n2nc(CCC(=O)O)cc2-c2cccc(C)c2)cc1 [Compound 106] is higher in inhibition in vivo at 10 mg/kg: 1% for the first, 11% for the second.

Same assay, conditions: po, 336 h; 15 mpk p.o., rat; read-out: % INH. p.o. (percentage inhibition of pad swelling)

Compared with CCC(=O)CCc1cc(-c2ccc(Cl)cc2)n(-c2ccc(OC)cc2)n1 [Compound 180], CCC(O)CCc1cc(-c2ccc(Cl)cc2)n(-c2ccc(OC)cc2)n1 (centres unmarked) [Compound 177] is lower in inhibition in vivo at 15 mg/kg: 32% for the first, 16% for the second.

Going from COc1ccccc1-n1nc(CCC(=O)N(C)O)cc1-c1ccc(Cl)cc1 [Compound 104] to CCOc1ccc(-n2nc(CCC(=O)N(C)O)cc2-c2ccc(Cl)cc2)cc1 [Compound 76], the inhibition in vivo at 15 mg/kg rises from 39% to 43%.

Going from COc1ccc(-n2nc(CCC=NNc3nccs3)cc2-c2ccc(Cl)cc2)cc1 [Compound 174] to COc1ccc(-n2nc(CCC(=NNc3nccs3)c3ccccc3)cc2-c2ccc(Cl)cc2)cc1 [Compound 176], the inhibition in vivo at 15 mg/kg falls from 37% to 6%.

First: COc1ccc(-n2nc(CCC(=O)Nc3nnn[nH]3)cc2-c2ccc(Cl)cc2)cc1 [Compound 90]
Second: COc1ccc(-n2nc(CCC(=O)NCC(=O)NO)cc2-c2ccc(Cl)cc2)cc1 [Compound 88]
The inhibition in vivo at 15 mg/kg of the first is lower: 32% for the first, 36% for the second.

First: CCOC(=O)C(=O)NCCc1cc(-c2ccc(Cl)cc2)n(-c2ccc(OC)cc2)n1 [Compound 160, Ethyl 2-[5-(4-chlorophenyl)-1-(4-methoxyphenyl)-3-pyrazolyl]-ethylamine-N-oxoacetate]
Second: COc1ccc(-n2nc(CCNC(=O)C(=O)NO)cc2-c2ccc(Cl)cc2)cc1 [Compound 165]
The inhibition in vivo at 15 mg/kg of the first is lower: 9% for the first, 41% for the second.

First: CCOC(=O)C(CS)NC(=O)CCc1cc(-c2ccc(Cl)cc2)n(-c2ccc(OC)cc2)n1 (centres unmarked) [Compound 100]
Second: COc1ccc(-n2nc(CCC(=O)NCC(=O)N(C)O)cc2-c2ccc(Cl)cc2)cc1 [Compound 89]
The inhibition in vivo at 15 mg/kg of the first is higher: 58% for the first, 57% for the second.

In the case of COc1ccc(-n2nc(CCC(O)c3ccccc3)cc2-c2ccc(Cl)cc2)cc1 (centres unmarked) [Compound 178], the inhibition in vivo at 15 mg/kg is reported as 8%.

Same assay, conditions: po, 336 h; 20 mpk p.o., rat; read-out: % INH. p.o. (percentage inhibition of pad swelling)

In the case of COc1ccc(-n2nc(CCCOC(=O)CC(C)=O)cc2-c2ccc(Cl)cc2)cc1 [Compound 59, 3-(3-Acetoacetoxypropyl)-5-(4-chlorophenyl)-1-(4-methoxyphenyl) pyrazole], the inhibition in vivo at 20 mg/kg is reported as 48%.

Same assay, conditions: po, 336 h; 25 mpk p.o., rat; read-out: % INH. p.o. (percentage inhibition of pad swelling)

Compared with COc1ccc(-n2nc(CCC(=O)NO)cc2-c2ccc(Cl)cc2)cc1 [Compound 29, 3-[5-(4-Chlorophenyl)-1-(4-methoxyphenyl)-3-pyrazolyl]-N-hydroxypropanamide], COc1ccc(-n2nc(CCC(=O)N(C)OC)cc2-c2ccc(Cl)cc2)cc1 [Compound 44] is lower in inhibition in vivo at 25 mg/kg: 91% for the first, 69% for the second.

First: COc1ccc(-n2nc(CCCOC(=O)CCc3cc(-c4ccc(Cl)cc4)n(-c4ccc(OC)cc4)n3)cc2-c2ccc(Cl)cc2)cc1 [Compound 16, 3-[5-(4-Chlorophenyl)-1-(4-methoxyphenyl)-3-pyrazolyl] propyl 3-[5-(4-Chlorophenyl)-1-(4-methoxyphenyl)-3-pyrazolyl] propionate]
Second: COc1ccc(-n2nc(CCC(=O)Nc3ccc(O)cc3)cc2-c2ccc(Cl)cc2)cc1 [Compound 34]
The inhibition in vivo at 25 mg/kg of the first is higher: 82% for the first, 21% for the second.

First: COc1ccc(-n2nc(CCCO)cc2-c2ccc(-c3ccccc3)cc2)cc1 [Compound 54]
Second: COc1ccc(-n2nc(CCCO)cc2-c2ccc(F)cc2)cc1 [Compound 30]
The inhibition in vivo at 25 mg/kg of the first is lower: 36% for the first, 42% for the second.

First: COCCCc1cc(-c2ccc(Cl)cc2)n(-c2ccc(OC)cc2)n1 [Compound 24, 3-[5-(4-Chlorophenyl)-1-(4-methoxyphenyl)-3-pyrazolyl] propyl methyl ether]
Second: COc1ccc(-n2nc(CCC=NO)cc2-c2ccc(Cl)cc2)cc1 [Compound 26, 5-(4-Chlorophenyl)-3-(3-oximinopropyl)-1-(4-methoxyphenyl) pyrazole]
The inhibition in vivo at 25 mg/kg of the first is lower: 64% for the first, 79% for the second.

Compared with COC(=O)c1ccc(/C=C/CCc2cc(-c3ccc(Cl)cc3)n(-c3ccc(OC)cc3)n2)cc1 [Compound 25, 3-[4-(4-Carbomethoxyphenyl)-3(E)-butenyl]-5-(4-chlorophenyl)-1-(4-methoxyphenyl) pyrazole], COc1ccc(-n2nc(CCC(=O)N(O)C(C)(C)C)cc2-c2ccc(Cl)cc2)cc1 [Compound 58, 3-[5-(4-chlorophenyl)-1-(4-methoxyphenyl)-3-pyrazolyl]-N-tert-butyl-N-hydroxypropanamide] is higher in inhibition in vivo at 25 mg/kg: 18% for the first, 47% for the second.

O=C(O)CCc1cc(-c2ccc(Cl)cc2)n(-c2ccccc2)n1 [Compound 17, 3-[5-(4-Chlorophenyl)-1-phenyl-3-pyrazolyl]propionic acid] gave an inhibition in vivo at 25 mg/kg of 50%.

Same assay, conditions: po, 336 h; 30 mpk p.o., rat; read-out: % INH. p.o. (percentage inhibition of pad swelling)

Compared with COc1ccc(-n2nc(CCCN)cc2-c2ccc(Cl)cc2)cc1 [Compound 96, 3-[5-(4-Chlorophenyl)-1-(4-methoxyphenyl)-3-pyrazolyl]propylamine], CCCCCOc1ccc(-n2nc(CCCO)cc2-c2ccc(Cl)cc2)cc1 [Compound 51] is lower in inhibition in vivo at 30 mg/kg: 56% for the first, 6.4% for the second.

Same assay, conditions: po, 336 h; 40 mpk p.o., rat; read-out: % INH. p.o. (percentage inhibition of pad swelling)

First: O=[N+]([O-])c1ccc(-n2nc(CCCO)cc2-c2ccc(Cl)cc2)cc1 [Compound 48]
Second: COC(=O)CCc1cc(-c2ccc(Cl)cc2)n(-c2ccc(OC)cc2)n1 [Compound 19, Methyl 3-[5-(4-chlorophenyl)-1-(4-methoxyphenyl)-3-pyrazolyl] propionate]
The inhibition in vivo at 40 mg/kg of the first is lower: 40% for the first, 69% for the second.

Compared with CNOC(=O)CCc1cc(-c2ccc(Cl)cc2)n(-c2ccc(OC)cc2)n1 [Compound 53, 0-[2-[5-(4-Chlorophenyl)-1-(4-methoxyphenyl)-3-pyrazolyl]ethyl-carbonyl]-N-methylhydroxylamine], COc1ccc(-n2nc(CCC(=O)O)cc2-c2ccc(Cl)cc2)cc1OC [Compound 74] is lower in inhibition in vivo at 40 mg/kg: 94% for the first, 17% for the second.

Compared with COc1ccc(-n2nc(CCC(=O)N(C)O)c(Br)c2-c2ccc(Cl)cc2)cc1 [Compound 148], CN(O)C(=O)CCc1cc(-c2ccc(Cl)cc2)n(-c2ccccc2)n1 [Compound 67, 3-[5-(4-Chlorophenyl)-1-phenyl-3-pyrazolyl]-N-hydroxy-N-methyl propanamide] is higher in inhibition in vivo at 40 mg/kg: 15% for the first, 30% for the second.

Same assay, conditions: po, 336 h; 50 mpk p.o., rat; read-out: % INH. p.o. (percentage inhibition of pad swelling)

Compared with OCCCc1cc(-c2ccc(Cl)cc2)n(-c2ccc(F)cc2)n1 [Compound 62], OCCCc1cc(-c2ccc(Cl)cc2)n(-c2ccc(Cl)cc2)n1 [Compound 4] is higher in inhibition in vivo at 50 mg/kg: 31% for the first, 68% for the second.

First: CC(=O)OCCCc1cc(-c2ccc(Cl)cc2)n(-c2ccccc2)n1 [Compound 7, 3-(3-Acetoxypropyl)-5-(4-chlorophenyl)-1-phenylpyrazole]
Second: COc1ccc(-n2nc(CCCO)cc2-c2ccccc2)cc1 [Compound 10]
The inhibition in vivo at 50 mg/kg of the first is higher: 54% for the first, 30% for the second.

Tested on: C-reactive protein
Experiment: not given
Conditions: rheumatoid arthritis patients; cited from earlier work

For NC(=O)N1C(=O)C(=C(O)c2cccs2)c2cc(Cl)ccc21 [CP 66,248], the “C-reactive protein levels (in words)” value is given as “reduction of C-reactive protein levels”.

Tested on: bronchospasm / LTB4
Experiment: Arachidonic acid-induced bronchospasm and LTB4 blood levels in anesthetized guinea pigs
Type: in vivo
Conditions: AA i.v. 10 mg/kg
Protocol: Intravenous administration of 10 mg/kg AA to anesthetized guinea pigs pretreated with indomethacin (10 mg/kg) and propranolol (0.1 mg/kg) results in a sustained bronchospasm which is associated with increased blood levels of LTB4. […] In the dog, intraarticular injection of rabbit anti-dog-dog IgG immune complexes into the knee joint results in an acute synovitis characterized by an influx of inflammatory cells into the joint space as well as an increase in synovial fluid levels of PGE2 and LTB4.

With COc1ccc2c(c1)c(CC(=O)O)c(C)n2C(=O)c1ccc(Cl)cc1 [indomethacin] the “effect on LTB4 levels (in words)” value was “no effect”.

With COc1ccc2c(c1)c(CC(=O)O)c(C)n2C(=O)c1ccc(Cl)cc1 [indomethacin] the “effect on bronchospasm (in words)” value was “no effect”.

Tested on: interleukin-1
Experiment: not given
Conditions: in vitro and in vivo; cited from earlier work

In the case of NC(=O)N1C(=O)C(=C(O)c2cccs2)c2cc(Cl)ccc21 [CP 66,248], the “inhibition of interleukin-1 levels (in words)” value is listed as “could inhibit interleukin-1 levels in vitro and in vivo”.
